Reference: patent US20240116985A1, “STAPLED PEPTIDES AND METHODS THEREOF” (priority 2020, published 2024)
pIC50: −log10 of the molar value.

Biological target: T1, full-length beta-Catenin (Uniprot ID P35222) (Homo sapiens, UniProt P35222)
T1 construct: 10 nM full-length beta-Catenin (Uniprot ID P35222)
T1 sequence (P35222 1-781): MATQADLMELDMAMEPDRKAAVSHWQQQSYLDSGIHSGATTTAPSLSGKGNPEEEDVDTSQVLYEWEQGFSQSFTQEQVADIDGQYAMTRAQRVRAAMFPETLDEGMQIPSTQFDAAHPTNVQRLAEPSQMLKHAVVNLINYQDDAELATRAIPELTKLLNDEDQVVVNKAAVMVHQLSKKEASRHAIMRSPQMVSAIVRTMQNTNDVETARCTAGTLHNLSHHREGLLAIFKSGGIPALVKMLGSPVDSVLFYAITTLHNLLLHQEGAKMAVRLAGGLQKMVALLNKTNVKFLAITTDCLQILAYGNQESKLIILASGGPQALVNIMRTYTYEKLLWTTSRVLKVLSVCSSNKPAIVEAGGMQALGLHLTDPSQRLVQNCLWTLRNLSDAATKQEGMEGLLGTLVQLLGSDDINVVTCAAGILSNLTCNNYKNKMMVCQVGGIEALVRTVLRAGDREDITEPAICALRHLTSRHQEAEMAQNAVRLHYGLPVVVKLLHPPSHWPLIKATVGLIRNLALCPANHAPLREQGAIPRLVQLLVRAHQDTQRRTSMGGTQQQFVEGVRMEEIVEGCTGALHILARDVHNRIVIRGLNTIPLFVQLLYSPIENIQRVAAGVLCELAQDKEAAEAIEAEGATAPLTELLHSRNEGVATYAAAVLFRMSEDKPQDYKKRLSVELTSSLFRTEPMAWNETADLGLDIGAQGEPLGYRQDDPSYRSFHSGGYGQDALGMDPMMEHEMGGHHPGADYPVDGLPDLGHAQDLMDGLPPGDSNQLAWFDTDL
Experiment: Fluorescence polarization IC50 (beta-catenin / 5FAM-TCF4 10-53 competition)
Assay type: binding
Details: fluorescence polarization; read-out: beta-Catenin FP IC50

Row | SMILES | pIC50
1 | CC(=O)N1CCC[C@]12CC=CCCCC1(CCCC=CCCCOC(=O)N3CC[C@@](C(=O)N[C@@H](Cc4ccccc4)C(=O)N[C@@H](Cc4csc5ccccc45)C(=O)N[C@@H](CC(=O)N4CCOCC4)C(N)=O)(C3)NC(=O)[C@H](CC(C)C)NC(=O)[C@H](Cc3ccccc3)NC(=O)[C@H](C)NC(=O)[C@H](CCCCNS(C)(=O)=O)NC(=O)[C@H](CCC(N)=O)NC(=O)[C@H](CC(=O)O)NC1=O)NC(=O)[C@H](CC1CCCCC1)NC(=O)[C@H](CC(N)=O)NC2=O (stereo partly drawn) [I-2524, Ac-PL3-Asn-Cha-B5-Asp-Gln-[MeSO2]Lys-Ala-Phe-Leu-PyrS2-Phe-BztA-MorphAsn-NH2] | 6.22
2 | CC(C)C[C@@H]1NC(=O)[C@H](Cc2ccccc2)NC(=O)[C@H](C)NC(=O)[C@H](C)NC(=O)[C@H](Cc2cccc(C(=O)O)c2)NC(=O)[C@H](CC(=O)O)NC(=O)C2(CCCC=CCCCOC(=O)N3CC[C@@](C(=O)N[C@@H](Cc4ccccc4Cl)C(=O)N[C@@H](Cc4csc5ccccc45)C(=O)N[C@@H](CCC(N)=O)C(N)=O)(C3)NC1=O)CCCC=CCCCC(=O)N1CCC[C@@H]1C(=O)N[C@@H](CC(=O)O)C(=O)N[C@@H](CC(C)(C)C)C(=O)N2 (stereo partly drawn) [I-1985, ProAm6-Asp-Npg-B5-Asp-3COOHF-Ala-Ala-Phe-Leu-PyrS2-2C1F-BztA-Gln-NH2] | 6.49
3 | CC(=O)N1CCC[C@]12CC=CCCCC1(CCCC=CCCCOC(=O)N3CC[C@@](C(=O)N[C@@H](Cc4ccsc4)C(=O)N[C@@H](Cc4c[nH]c5cc(Cl)ccc45)C(=O)N[C@@H](CO)C(N)=O)(C3)NC(=O)[C@H](CC(C)C)NC(=O)[C@H](Cc3ccccc3)NC(=O)[C@H](C)NC(=O)[C@H](C)NC(=O)[C@H](CC(=O)O)NC(=O)[C@H](CC(=O)O)NC1=O)NC(=O)[C@H](CC(C)(C)C)NC(=O)[C@H](CC(=O)O)NC2=O (stereo partly drawn) [I-1436, Ac-PL3-Asp-Npg-B5-Asp-Asp-Ala-Ala-Phe-Leu-PyrS2-3Thi-6C1W-Ser-NH2] | 6.92
4 | CC(=O)N1CCC[C@]12CC=CCCCC1(CCCC=CCCCOC(=O)N3CC[C@@](C(=O)N[C@@H](Cc4ccsc4)C(=O)N[C@@H](Cc4csc5ccccc45)C(=O)N[C@@H](CCC(N)=O)C(N)=O)(C3)NC(=O)[C@H](CC(C)C)NC(=O)[C@H](Cc3ccccc3)NC(=O)[C@H](C)NC(=O)[C@H](C)NC(=O)[C@H](CN(CC(=O)O)C(=O)C(F)(F)F)NC(=O)[C@H](CC(=O)O)NC1=O)NC(=O)[C@H](CC(C)(C)C)NC(=O)[C@H](CC(=O)O)NC2=O (stereo partly drawn) [I-1730, Ac-PL3-Asp-Npg-B5-Asp-[CF3CO]GA-Ala-Ala-Phe-Leu-PyrS2-3Thi-BztA-Gln-NH2] | 7.42
5 | CC(=O)N1CCC[C@]12CC=CCCCC1(CCCC=CCCCOC(=O)N3CC[C@@](C(=O)N[C@@H](Cc4ccsc4)C(=O)N[C@@H](Cc4csc5ccccc45)C(=O)N[C@@H](Cc4c[nH]cn4)C(=O)N[C@@H](CCCCN)C(N)=O)(C3)NC(=O)[C@H](CCC(N)=O)NC(=O)[C@H](Cc3ccccc3)NC(=O)[C@H](C)NC(=O)[C@H](C)NC(=O)[C@H](CC(=O)O)NC(=O)[C@H](CC(=O)O)NC1=O)NC(=O)[C@H](CC(C)(C)C)NC(=O)[C@H](CC(=O)O)NC2=O (stereo partly drawn) [I-2230, Ac-PL3-Asp-Npg-B5-Asp-Asp-Ala-Ala-Phe-Gln-PyrS2-3thi-BztA-His-Lys-NH2] | 8.10
6 | CC(=O)N1CCC[C@]12CC=CCCCC1(CCCC=CCCCOC(=O)N3CC[C@@](C(=O)N[C@@H](Cc4ccsc4)C(=O)N[C@@H](Cc4csc5ccccc45)C(=O)N[C@@H](CCC(N)=O)C(N)=O)(C3)NC(=O)[C@H](CC(C)C)NC(=O)[C@H](Cc3ccccc3)NC(=O)[C@H](C)NC(=O)[C@H](C)NC(=O)[C@H](CN3CCCC[C@H]3C(=O)O)NC(=O)[C@H](CC(=O)O)NC1=O)NC(=O)[C@H](CC(C)(C)C)NC(=O)[C@H](CC(=O)O)NC2=O (stereo partly drawn) [I-1968, Ac-PL3-Asp-Npg-B5-Asp-S2COOPipA-Ala-Ala-Phe-Leu-PyrS2-3Thi-BztA-Gln-NH2] | 7.54
7 | CC(=O)N1CCC[C@]12CC=CCCCC1(CCCC=CCCCOC(=O)N3CC[C@@](C(=O)N[C@@H](Cc4ccccc4)C(=O)N[C@@H](Cc4csc5ccccc45)C(=O)N[C@@H](CCC(N)=O)C(N)=O)(C3)NC(=O)[C@H](CC(C)C)NC(=O)[C@H](Cc3ccccc3)NC(=O)[C@H](C)NC(=O)[C@H](CCCCNC(C)C)NC(=O)[C@H](Cc3cccc(C(N)=O)c3)NC(=O)[C@H](CC(=O)O)NC1=O)NC(=O)[C@H](CC(C)(C)C)NC(=O)[C@H](CC(N)=O)NC2=O (stereo partly drawn) [I-1592, Ac-PL3-Asn-Npg-B5-Asp-3cbmf-iPrLys-Ala-Phe-Leu-PyrS2-Phe-BztA-Gln-NH2] | 5.55
8 | CC(=O)N1CCC[C@]12CC=CCCCC1(CCCC=CCCCOC(=O)N3CC[C@@](C(=O)N[C@@H](Cc4ccccc4)C(=O)N[C@@H](Cc4csc5ccccc45)C(=O)N[C@@H](CCC(N)=O)C(N)=O)(C3)NC(=O)[C@H](Cc3c[nH]c4ccccc34)NC(=O)[C@H](Cc3ccccc3)NC(=O)[C@H](C)NC(=O)[C@H](CCCCNC(C)C)NC(=O)[C@H]([C@@H](C)O)NC(=O)[C@H](CC(=O)O)NC1=O)NC(=O)[C@H](CC(C)(C)C)NC(=O)[C@H](CC(N)=O)NC2=O (stereo partly drawn) [I-1600, Ac-PL3-Asn-Npg-B5-Asp-Thr-iPrLys-Ala-Phe-Trp-PyrS2-Phe-BztA-Gln-NH2] | 5.37
9 | CC(=O)N1CCC[C@]12CC=CCCCC1(CCCC=CCCCOC(=O)N3CC[C@@](C(=O)N[C@@H](Cc4ccsc4)C(=O)N[C@@H](Cc4csc5ccccc45)C(=O)N[C@@H](Cc4c[nH]cn4)C(N)=O)(C3)NC(=O)[C@H](CC(N)=O)NC(=O)[C@H](Cc3ccccc3)NC(=O)[C@H](C)NC(=O)[C@H](C)NC(=O)[C@H]([C@@H](C)O)NC(=O)[C@H](CC(N)=O)NC1=O)NC(=O)[C@H](CC(C)(C)C)NC(=O)[C@H](CC(=O)O)NC2=O (stereo partly drawn) [I-2141, Ac-PL3-Asp-Npg-B5-Asn-Thr-Ala-Ala-Phe-Asn-PyrS2-3Thi-BztA-His-NH2] | 6.51
10 | CC(=O)N1CCC[C@]12CC=CCCCC1(CCCC=CCCCOC(=O)N3CC[C@@](C(=O)N[C@@H](Cc4ccsc4)C(=O)N[C@@H](Cc4csc5ccccc45)C(=O)N[C@@H](CCC(N)=O)C(N)=O)(C3)NC(=O)[C@H](CC(C)C)NC(=O)[C@H](Cc3ccccc3)NC(=O)[C@H](C)NC(=O)[C@H](C)NC(=O)[C@H](CC(=O)O)NC(=O)[C@H](CC(=O)S)NC1=O)NC(=O)[C@H](CC(C)(C)C)NC(=O)[C@H](CC(=O)O)NC2=O (stereo partly drawn) [I-1945, Ac-PL3-Asp-Npg-B5-AspSH-Asp-Ala-Ala-Phe-Leu-PyrS2-3Thi-BztA-Gln-NH2] | 6.04
11 | CC(=O)N1CCC[C@]12CC=CCCC1(CCC=CCCOC(=O)N3CC[C@@](C(=O)N[C@@H](Cc4ccsc4)C(=O)N[C@@H](Cc4csc5ccccc45)C(=O)N[C@@H](CCC(N)=O)C(N)=O)(C3)NC(=O)[C@H](CC(C)C)NC(=O)[C@H](Cc3ccccc3)NC(=O)[C@H](C)NC(=O)[C@H](C)NC(=O)[C@H](CC(=O)O)NC(=O)[C@H](CC(=O)O)NC1=O)NC(=O)[C@H](CC(C)(C)C)NC(=O)[C@H](CC(=O)O)NC2=O (stereo partly drawn) [I-1970, Ac-PL3-Asp-Npg-B4-Asp-Asp-Ala-Ala-Phe-Leu-PyrS1-3Thi-BztA-Gln-NH2] | 6.36
12 | CCCCOC(=O)N1CCC[C@]12CC=CCCCC1(CCCC=CCCCOC(=O)N3CC[C@@](C(=O)N[C@@H](Cc4ccccc4Cl)C(=O)N[C@@H](Cc4csc5ccccc45)C(=O)N[C@@H](C)C(N)=O)(C3)NC(=O)[C@H](CC(C)C)NC(=O)[C@H](Cc3ccccc3)NC(=O)[C@H](C)NC(=O)[C@H](C)NC(=O)[C@H](Cc3cccc(C(=O)O)c3)NC(=O)[C@H](CC(=O)O)NC1=O)NC(=O)[C@H](CC(C)(C)C)NC(=O)[C@H](CC(=O)O)NC2=O (stereo partly drawn) [I-2304, CO2Bu-PL3-Asp-Npg-B5-Asp-3COOHF-Ala-Ala-Phe-Leu-PyrS2-2C1F-BztA-Ala-NH2] | 6.29
13 | CC(=O)N1CCC[C@]12CC=CCCCC1(CCCC=CCCCOC(=O)N3CC[C@@](C(=O)N[C@@H](Cc4ccsc4)C(=O)N[C@@H](Cc4csc5ccccc45)C(=O)N[C@@H](Cc4c[nH]nn4)C(N)=O)(C3)NC(=O)[C@H](CC(C)C)NC(=O)[C@H](Cc3ccccc3)NC(=O)[C@H](C)NC(=O)[C@H](C)NC(=O)[C@H](CC(=O)O)NC(=O)[C@H](CC(=O)O)NC1=O)NC(=O)[C@H](CC(C)(C)C)NC(=O)[C@H](CC(=O)O)NC2=O (stereo partly drawn) [I-1498, Ac-PL3-Asp-Npg-B5-Asp-Asp-Ala-Ala-Phe-Leu-PyrS2-3Thi-BztA-4TriA-NH2] | 7.32
14 | CC(=O)N1CCC[C@]12CC=CCCCC1(CCCC=CCCCOC(=O)N3CC[C@@](C(=O)N[C@@H](Cc4ccsc4)C(=O)N[C@@H](Cc4csc5ccccc45)C(=O)N[C@H](C(N)=O)C(C)C)(C3)NC(=O)[C@H](CC(N)=O)NC(=O)[C@H](Cc3ccccc3)NC(=O)[C@H](C)NC(=O)[C@H](C)NC(=O)[C@H]([C@@H](C)O)NC(=O)[C@H](CC(N)=O)NC1=O)NC(=O)[C@H](CC(C)(C)C)NC(=O)[C@H](CC(=O)O)NC2=O (stereo partly drawn) [I-1879, Ac-PL3-Asp-Npg-B5-Asn-Thr-Ala-Ala-Phe-Asn-PyrS2-3Thi-BztA-Val-NH2] | 6.25
